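How tested: cells in 96-well plates exposed to compound for 48 hours at five concentrations. The concentration for 50% growth inhibition is given as GI50.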 Active and inactive are the calls of the source. No stated cut-off is given here; in the data, active = GI50 up to about 1.1 µM and inactive = higher.
Key:
Test in all cases: NCI tumour cell line growth inhibition, 48 h
MDA-MB-435 = system: MDA-MB-435
NCI-H23 = system: NCI-H23
HOP-62 = system: HOP-62
UO-31 = system: UO-31
HOP-92 = system: HOP-92
RPMI-8226 = system: RPMI-8226
SF-268 = system: SF-268
HL-60 = system: HL-60
PC-3 = system: PC-3
NCI-H522 = system: NCI-H522
OVCAR-4 = system: OVCAR-4
SR = system: SR
NCI-H460 = system: NCI-H460
LOX IMVI = system: LOX IMVI
IGROV-1 = system: IGROV-1
HCT-116 = system: HCT-116
BT-549 = system: BT-549
SK-MEL-5 = system: SK-MEL-5
SK-MEL-2 = system: SK-MEL-2
SF-295 = system: SF-295

Measured: GI50

CSC(=Nc1nnc(-c2ccc([N+](=O)[O-])cc2)s1)SC
inactive: MDA-MB-435 > 67.1 µM | NCI-H23 27.8 µM | HOP-62 20.1 µM | UO-31 27.9 µM | HOP-92 9.25 µM | RPMI-8226 > 100 µM | SF-268 16.7 µM | HL-60 > 100 µM | PC-3 > 41.9 µM | NCI-H522 15.5 µM | OVCAR-4 45.8 µM | SR > 100 µM | NCI-H460 > 89.1 µM | LOX IMVI 31.9 µM | IGROV-1 27.9 µM | HCT-116 27.4 µM | BT-549 > 77.4 µM | SK-MEL-5 55.7 µM | SK-MEL-2 26.7 µM | SF-295 18.5 µM

O=c1[nH]c(=O)n(C2CC(O)C(CO)O2)cc1I (stereo not given)
inactive: MDA-MB-435 > 100 µM | NCI-H23 > 100 µM | HOP-62 > 100 µM | UO-31 > 100 µM | HOP-92 > 100 µM | RPMI-8226 > 43.8 µM | SF-268 > 100 µM | HL-60 > 81.3 µM | PC-3 > 100 µM | NCI-H522 > 100 µM | OVCAR-4 > 100 µM | SR 38.7 µM | NCI-H460 > 60.7 µM | LOX IMVI > 87.1 µM | IGROV-1 > 100 µM | HCT-116 > 100 µM | BT-549 > 100 µM | SK-MEL-5 > 100 µM | SK-MEL-2 > 100 µM | SF-295 > 100 µM

Cn1cnc([N+](=O)[O-])c1Sc1nc(N)nc2c1ncn2Cc1ccccc1
inactive: MDA-MB-435 21.6 µM | NCI-H23 19.2 µM | HOP-62 19.7 µM | UO-31 15.5 µM | HOP-92 12 µM | RPMI-8226 19 µM | SF-268 16.5 µM | HL-60 18.9 µM | PC-3 11.6 µM | NCI-H522 10.2 µM | OVCAR-4 20.8 µM | SR 17.9 µM | NCI-H460 17.8 µM | LOX IMVI 19.6 µM | IGROV-1 14.5 µM | HCT-116 20.7 µM | BT-549 22.1 µM | SK-MEL-5 19 µM | SK-MEL-2 15.8 µM | SF-295 44.9 µM

Cc1cc2nc(C=C(C(F)(F)F)C(F)(F)F)oc2cc1C
inactive: MDA-MB-435 2.14 µM | NCI-H23 2.49 µM | HOP-62 3.83 µM | UO-31 4.11 µM | HOP-92 > 10 µM | RPMI-8226 1.55 µM | SF-268 3.42 µM | HL-60 2.03 µM | PC-3 2.47 µM | NCI-H522 3.12 µM | OVCAR-4 3.18 µM | SR 2.22 µM | NCI-H460 3.92 µM | LOX IMVI 2.09 µM | IGROV-1 2.91 µM | HCT-116 1.38 µM | BT-549 2.67 µM | SK-MEL-5 > 10 µM | SK-MEL-2 > 10 µM | SF-295 > 10 µM
